How the values were obtained:
[1] = system: MTAP-null NCI-H838 NSCLC CDX; experiment: MTAP-null NCI-H838 NSCLC CDX model, combination with AGI-41998; type: in vivo; settings: AGI-41998 at 10 mg/kg QD, minimum of 28 days
Method: Briefly the groups were treated for a minimum of 28 days and tumor-volumes were monitored for the indicated time period.

[2] = Oral pharmacokinetics in cynomolgus monkey; type: in vivo, cynomolgous monkeys; settings: 3 mg/kg via oral gavage, n=3
Excerpt: The dotted lines indicate the HAP1 MTAP-null and MTAP WT GI50s from a 7-day viability assay the compound. The data is presented as mean±SD.

[3] = system: MTAP-null OCI-LY19 cell line tumors; experiment: OCI-LY19 MTAP-null xenograft, switch from TNG908 to compound of Formula (I); type: in vivo, mice; settings: 120 mg/kg BID
Excerpt: The data is shown in FIG. 10A and FIG. 10B as mean±SEM. Regression is defined as final mean tumor volume <30% initial mean tumor volume.

Compound: AGI-41998
- change in tumor volume [1]: increases in tumor volumes

Compound: CCc1cc(NC(=O)C(=O)N2C[C@@H](C)CC[C@@H]2c2ccc3sc(C4CCN(C)CC4)nc3c2)cnc1N [compound of Formula (I), N-(6-amino-5-ethylpyridin-3-yl)-2-((2R,5S)-5-methyl-2-(2-(1-methylpiperidin-4-yl)benzo[d]thiazol-5-yl)piperidin-1-yl)-2-oxoacetamide]
- pharmacokinetic properties [2]: good pharmacokinetic properties

Compound: Cc1cc(NC(=O)C(=O)N2C[C@@H](C)CC[C@@H]2c2ccc3scnc3c2)cnc1N [TNG908]
- tumor response under continuous dosing [3]: appear to have developed resistance

— patent publication US20240190858A1, “CRYSTALLINE FORMS, PHARMACEUTICAL COMPOSITIONS AND METHODS OF USE THEREOF” (priority 2022, published 2024)
